The target of the experiment is T1, CCR2 (Homo sapiens, UniProt P41597).
T1 construct: host or cells: THP-1 human monocytic cells
T1 sequence (P41597 whole entry): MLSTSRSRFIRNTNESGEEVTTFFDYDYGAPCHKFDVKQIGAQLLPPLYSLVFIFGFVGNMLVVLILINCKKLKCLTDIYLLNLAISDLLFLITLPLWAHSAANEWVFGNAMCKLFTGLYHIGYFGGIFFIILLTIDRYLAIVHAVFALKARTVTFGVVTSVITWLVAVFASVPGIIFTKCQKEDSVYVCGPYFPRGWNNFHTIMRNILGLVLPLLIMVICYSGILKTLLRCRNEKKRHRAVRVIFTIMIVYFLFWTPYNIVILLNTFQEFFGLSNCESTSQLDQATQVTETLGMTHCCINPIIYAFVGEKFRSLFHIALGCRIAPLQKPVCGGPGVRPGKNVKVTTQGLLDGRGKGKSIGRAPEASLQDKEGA
In words: MCP-1 Receptor Binding Assay in THP-1 Cells (125I-MCP-1 displacement). The following applies: 0.5 nM 125I labeled MCP-1, 2 hours at 30° C., read-out: CCR2 Binding, Inhibition of MCP-1 Binding IC50. The method, then: Compounds of the invention were subjected to various representative biological tests. The results of these tests are intended to illustrate the invention in a non-limiting fashion. MCP-1 Receptor Binding Assay in THP-1 Cells
Human monocytic cell line THP-1 cells were obtained from American Type Culture Collection (Manassas, Va., USA). The THP-1 cells were grown in RPMI-1640 (RPMI: Roswell Park Memorial Institute Medium-cell culture growth media) supplemented with 10% fetal bovine serum in a humidified 5% CO2 atmosphere at 37° C. The cell density was maintained […].
THP-1 (cells were incubated with 0.5 nM ^125I labeled MCP-1 (Perkin-Elmer Life Sciences, Inc. Boston, Mass.) in the presence of varying concentrations of either unlabeled MCP-1 (R & D Systems, Minneapolis, Minn.) or test compound for 2 hours at 30° C. in a 96 well plate. Cells were then harvested onto a filter plate, dried, and 20 μL of Microscint 20 was added to each well. Plates were counted in a TopCount NXT, Microplate Scintillation & Luminescence Counter (Perkin-Elmer Life Sciences, Inc. Boston, Mass.). Blank values (buffer only) were subtracted from all values and drug treated values were compared to vehicle treated values. 1 μM cold MCP-1 was used for nonspecific binding.
Table 1 lists IC50 values for inhibition of MCP-1 binding to CCR2 obtained for test compounds of the invention. Where an IC50 value was not obtained for a particular compound, the percent inhibition is provided at a test concentration of 25 μM.
`O=C(CNC(=O)c1cccc(C(F)(F)F)c1)NC1CN(C2CCC(n3ccccc3=O)CC2)C1` (single isomer, unassigned) [Example 1a, N-({1-[4-(2-Oxo-2H-pyridin-1-yl)-cyclohexyl]-azetidin-3-ylcarbamoyl}-methyl)-3-trifluoromethyl-benzamide]: the 50% inhibitory concentration (IC50) amounted to 130 nM. As for `O=C(CNC(=O)c1cccc(C(F)(F)F)c1)NC1CN(C2CCC(Oc3ccccn3)CC2)C1` (single isomer, unassigned) [Example 2a, N-({1-[4-(Pyridin-2-yloxy)-cyclohexyl]-azetidin-3-ylcarbamoyl}-methyl)-3-trifluoromethyl-benzamide], the half-maximal inhibitory concentration (IC50) is 230 nM. The figure for `O=C(CNC(=O)c1cccc(C(F)(F)F)c1)NC1CN(C2CCC(Oc3ncc(Br)cn3)CC2)C1` (single isomer, unassigned) [Example 5a, N-({1-[4-(5-Bromo-pyrimidin-2-yloxy)-cyclohexyl]-azetidin-3-ylcarbamoyl}-methyl)-3-trifluoromethyl-benzamide] is 24000 nM; for `O=C(CNC(=O)c1cccc(C(F)(F)F)c1)NC1CN(C2CCC(n3cnccc3=O)CC2)C1` (single isomer, unassigned) [Example 6a, N-({1-[4-(6-Oxo-6H-pyrimidin-1-yl)-cyclohexyl]-azetidin-3-ylcarbamoyl}-methyl)-3-trifluoromethyl-benzamide] it is 380 nM. For the molecule `O=C(CNC(=O)c1cccc(C(F)(F)F)c1)NC1CN(C2CCC(Oc3ccncn3)CC2)C1` (single isomer, unassigned) [Example 7a, N-({1-[4-(Pyrimidin-4-yloxy)-cyclohexyl]-azetidin-3-ylcarbamoyl}-methyl)-3-trifluoromethyl-benzamide], the IC50 turned out to be 2700 nM. Under `O=C(CNC(=O)c1cccc(C(F)(F)F)c1)NC1CN(C2CCC(n3cc(I)ccc3=O)CC2)C1` (single isomer, unassigned) [Example 8a, N-({1-[4-(5-Iodo-2-oxo-2H-pyridin-1-yl)-cyclohexyl]-azetidin-3-ylcarbamoyl}-methyl)-3-trifluoromethyl-benzamide] stands 430 nM; under `Cc1ccc(OC2CCC(N3CC(NC(=O)CNC(=O)c4cccc(C(F)(F)F)c4)C3)CC2)nc1` (single isomer, unassigned) [Example 12a, N-({1-[4-(5-Methyl-pyridin-2-yloxy)-cyclohexyl]-azetidin-3-ylcarbamoyl}-methyl)-3-trifluoromethyl-benzamide], 820 nM. Under `COc1cccn(C2CCC(N3CC(NC(=O)CNC(=O)c4cccc(C(F)(F)F)c4)C3)CC2)c1=O` (single isomer, unassigned) [Example 13a, N-({1-[4-(3-Methoxy-2-oxo-2H-pyridin-1-yl)-cyclohexyl]-azetidin-3-ylcarbamoyl}-methyl)-3-trifluoromethyl-benzamide] stands 100 nM; under `O=C(CNC(=O)c1cccc(C(F)(F)F)c1)NC1CN(C2CCC(n3ccc(O)cc3=O)CC2)C1` (single isomer, unassigned) [Example 15a, N-({1-[4-(4-Hydroxy-2-oxo-2H-pyridin-1-yl)-cyclohexyl]-azetidin-3-ylcarbamoyl}-methyl)-3-trifluoromethyl-benzamide], 5400 nM; under `Cc1cccn(C2CCC(N3CC(NC(=O)CNC(=O)c4cccc(C(F)(F)F)c4)C3)CC2)c1=O` (single isomer, unassigned) [Example 18a, N-({1-[4-(3-Methyl-2-oxo-2H-pyridin-1-yl)-cyclohexyl]-azetidin-3-ylcarbamoyl}-methyl)-3-trifluoromethyl-benzamide], 330 nM.

With `O=C(CNC(=O)c1cccc(C(F)(F)F)c1)NC1CN(C2CCC(n3cc(C(F)(F)F)ccc3=O)CC2)C1` (single isomer, unassigned) [Example 21a, N-({1-[4-(2-Oxo-5-trifluoromethyl-2H-pyridin-1-yl)-cyclohexyl]-azetidin-3-ylcarbamoyl}-methyl)-3-trifluoromethyl-benzamide], the 50% inhibitory concentration (IC50) stood at 6500 nM. With `O=C(CNC(=O)c1cccc(C(F)(F)F)c1)NC1CN(C2CCC(n3cc(Cl)ccc3=O)CC2)C1` (single isomer, unassigned) [Example 22a, N-({1-[4-(2-Oxo-5-chloro-2H-pyridin-1-yl)-cyclohexyl]-azetidin-3-ylcarbamoyl}-methyl)-3-trifluoromethyl-benzamide], the IC50 was 1100 nM. For the molecule `O=C(CNC(=O)c1cccc(C(F)(F)F)c1)NC1CN(C2CCC(N3C(=O)c4ccccc4C3=O)CC2)C1` (single isomer, unassigned) [Example 24a, N-({1-[4-(1,3-Dioxo-1,3-dihydro-isoindol-2-yl)-cyclohexyl]-azetidin-3-ylcarbamoyl}-methyl)-3-trifluoromethyl-benzamide], the half-inhibitory concentration (IC50) was 680 nM. The figure for `O=C(CNC(=O)c1cccc(C(F)(F)F)c1)NC1CN(C2CCC(Oc3noc4ccccc34)CC2)C1` (single isomer, unassigned) [Example 25a, N-({1-[4-(Benzo[d]isoxazol-3-yloxy)-cyclohexyl]azetidin-3-ylcarbamoyl}-methyl)-3-trifluoromethyl-benzamide] is 340 nM. Under `O=C(CNC(=O)c1cccc(C(F)(F)F)c1)NC1CN(C2CCC(n3oc4ccccc4c3=O)CC2)C1` (single isomer, unassigned) [Example 26a, N-({1-[4-(3-Oxo-3H-benzo[d]isoxazol-2-yl)-cyclohexyl]-azetidin-3-ylcarbamoyl}-methyl)-3-trifluoromethyl-benzamide] stands 95 nM; under `Cc1cnn(C2CCC(N3CC(NC(=O)CNC(=O)c4cccc(C(F)(F)F)c4)C3)CC2)c1` (single isomer, unassigned) [Example 27a, N-({1-[4-(4-Methyl-pyrazol-1-yl)-cyclohexyl]-azetidin-3-ylcarbamoyl}-methyl)-3-trifluoromethyl-benzamide], 170 nM; under `C[Si](C)(C)C#Cc1cnn(C2CCC(N3CC(NC(=O)CNC(=O)c4cccc(C(F)(F)F)c4)C3)CC2)c1` (single isomer, unassigned) [Example 29a, 3-Trifluoromethyl-N-({1-[4-(4-trimethylsilanylethynyl-pyrazol-1-yl)-cyclohexyl]-azetidin-3-ylcarbamoyl}-methyl)-benzamide], 21 nM.

For `C#Cc1cnn(C2CCC(N3CC(NC(=O)CNC(=O)c4cccc(C(F)(F)F)c4)C3)CC2)c1` (single isomer, unassigned) [Example 30a, N-({1-[4-(4-Ethynyl-pyrazol-1-yl)-cyclohexyl]-azetidin-3-ylcarbamoyl}-methyl)-3-trifluoromethyl-benzamide], the IC50 was found to be 88 nM. Turning to `O=C(CNC(=O)c1cccc(C(F)(F)F)c1)NC1CN(C2CCC(n3ccnc3)CC2)C1` (single isomer, unassigned) [Example 31a, N-{[1-(4-Imidazol-1-yl-cyclohexyl)-azetidin-3-ylcarbamoyl]-methyl}-3-trifluoromethyl-benzamide], the IC50 was 340 nM. Under `O=C(CNC(=O)c1cccc(C(F)(F)F)c1)NC1CN(C2CCC(n3ncc4ccccc43)CC2)C1` (single isomer, unassigned) [Example 32a, N-{[1-(4-Indazol-1-yl-cyclohexyl)-azetidin-3-ylcarbamoyl]-methyl}-3-trifluoromethyl-benzamide] stands 510 nM; under `O=C(CNC(=O)c1cccc(C(F)(F)F)c1)NC1CN(C2CCC(Oc3nsc4ccccc34)CC2)C1` (single isomer, unassigned) [Example 34a, N-({1-[4-(Benzo[d]isothiazol-3-yloxy)-cyclohexyl]-azetidin-3-ylcarbamoyl}-methyl)-3-trifluoromethyl-benzamide], 290 nM; under `O=C(CNC(=O)c1cccc(C(F)(F)F)c1)NC1CN(C2CCC3(CC2)OC(=O)c2ccccc23)C1` (single isomer, unassigned) [Example 38a], 920 nM. Consider `O=C(CNC(=O)c1cccc(C(F)(F)F)c1)NC1CN(C2CCC3(CC2)NC(=O)c2ccccc23)C1` (single isomer, unassigned) [Example 39a], for which the half-inhibitory concentration (IC50) was found to be 1500 nM. For the molecule `O=C(CNC(=O)c1cccc(C(F)(F)F)c1)NC1CN(C2CCC3(CC2)OC(=O)Nc2ccccc23)C1` (single isomer, unassigned) [Example 40a], the IC50 was 2200 nM.

For the molecule `O=C(CNC(=O)c1cccc(C(F)(F)F)c1)NC1CN(C2CCC3(CC2)OCc2ccccc23)C1` (single isomer, unassigned) [Example 41a, N-[(1-3′H-Spiro[cyclohex-1,1′-isobenzofuran]-4-yl-azetidin-3-ylcarbamoyl)-methyl]-3-trifluoromethyl-benzamide], the IC50 was 80 nM. Under `O=C(CNC(=O)c1cccc(C(F)(F)F)c1)NC1CN(C2CCC(n3cc(Br)cnc3=O)CC2)C1` (stereo not drawn) [Example 3, N-({1-[4-(5-Bromo-2-oxo-2H-pyrimidin-1-yl)-cyclohexyl]-azetidin-3-ylcarbamoyl}-methyl)-3-trifluoromethyl-benzamide] stands 2200 nM. As to `O=C(CNC(=O)c1cccc(C(F)(F)F)c1)NC1CN(C2CCC(n3cccnc3=O)CC2)C1` (stereo not drawn) [Example 4, N-({1-[4-(2-Oxo-2H-pyrimidin-1-yl)-cyclohexyl]-azetidin-3-ylcarbamoyl}-methyl)-3-trifluoromethyl-benzamide], the IC50 was 5900 nM.

The values are drawn from US8324186B2, “4-azetidinyl-1-heteroatom linked-cyclohexane antagonists of CCR2” (Janssen Pharmaceutica N.V., priority 2009, dated 2012).
